{
  "source": "patent US20210371455A1",
  "about": "“METHODS AND COMPOSITIONS COMPRISING REDUCED LEVEL OF HOST CELL PROTEINS” (Regeneron Pharmaceuticals, Inc., priority 2019, published 2021)",
  "molecules": {"B1": {"name": "human PLBD2: recombinant human putative phospholipase B-like 2 purchased from Origene (protein)", "chain": "IPAPGGRWARDGQVPPASRSRSVLLDVSAGQLLMVDGRHPDAVAWANLTNAIRETGWAFLELGTSGQYNDSLQAYAAGVVEAAVSEELIYMHWMNTVVNYCGPFEYEVGYCERLKSFLEANLEWMQEEMESNPDSPYWHQVRLTLLQLKGLEDSYEGRVSFPAGKFTIKPLGFLLLQLSGDLEDLELALNKTKIKPSLGSGSCSALIKLLPGQSDLLVAHNTWNNYQHMLRVIKKYWLQFREGPWGDYPLVPGNKLVFSSYPGTIFSCDDFYILGSGLVTLETTIGNKNPALWKYVRPRGCVLEWVRNIVANRLASDGATWADIFKRFNSGTYNNQWMIVDYKAFIPGGPSPGSRVLTILEQIPGMVVVADKTSELYQKTYWASYNIPSFETVFNASGLQALVAQYGDWFSYDGSPRAQIFRRNQSLVQDMDSMVRLMRYNDFLHDPLSLCKACNPQPNGENAISARSDLNPANGSYPFQALRQRSHGGIDVKVTSMSLARILSLLAASGPTWDQVPPFQWSTSPFSGLLHMGQPDLWKFAPVKVSWD"}},
  "key": {"[1]": {"molecular_target": "T1, LPL (Homo sapiens, UniProt P06858)", "T1 sequence (P06858 28-475)": "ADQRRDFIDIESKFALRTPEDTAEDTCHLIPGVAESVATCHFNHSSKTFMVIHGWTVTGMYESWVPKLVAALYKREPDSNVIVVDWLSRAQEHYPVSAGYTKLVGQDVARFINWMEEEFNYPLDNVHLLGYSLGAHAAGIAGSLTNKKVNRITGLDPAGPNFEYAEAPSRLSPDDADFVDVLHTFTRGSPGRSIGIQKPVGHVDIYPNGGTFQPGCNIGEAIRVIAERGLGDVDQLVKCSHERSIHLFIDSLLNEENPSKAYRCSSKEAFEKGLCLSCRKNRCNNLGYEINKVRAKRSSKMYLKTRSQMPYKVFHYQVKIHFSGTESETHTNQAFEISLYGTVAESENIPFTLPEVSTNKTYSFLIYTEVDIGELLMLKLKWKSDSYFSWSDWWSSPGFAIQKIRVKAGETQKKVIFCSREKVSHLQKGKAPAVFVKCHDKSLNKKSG", "test": "PS-20 remaining with LPL, with and without Lalistat-2", "assay_type": "biochemical", "details": "0.05% PS-20 and 10 μg/mL LPL; t=0, 8 days and 15 days", "method": "Thus, addition of Lalistat only causes inhibition of LAL […]. […] The incubated samples were analyzed at t=0, 8 days and 15 days. […] Therefore, if lalistat2 can inhibit lipase activity in mAbs completely, then it means the LPL detected from mAbs were not active or abundance are too low to degrade PS20. The PS20 degradation seen from recombinant LPL may either due to the only LPL in high concentration can degrade PS20, or due to unexpected impurities presented in the recombinant LPL."}, "[2]": {"molecular_target": "T2, lysosomal acid lipase (LAL) (Homo sapiens, UniProt P38571)", "T2 sequence (P38571 77-399)": "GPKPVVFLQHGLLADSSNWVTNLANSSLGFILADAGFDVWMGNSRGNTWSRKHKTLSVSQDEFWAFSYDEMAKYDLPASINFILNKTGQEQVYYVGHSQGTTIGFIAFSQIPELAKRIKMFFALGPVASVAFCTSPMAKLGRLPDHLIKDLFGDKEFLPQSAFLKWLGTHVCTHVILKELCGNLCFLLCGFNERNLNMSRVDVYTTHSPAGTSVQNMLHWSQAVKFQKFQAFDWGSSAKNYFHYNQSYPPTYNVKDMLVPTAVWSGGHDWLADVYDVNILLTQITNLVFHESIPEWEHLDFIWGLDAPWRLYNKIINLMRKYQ", "details": "cited from earlier work"}, "[3]": {"molecular_target": "T3, bovine milk lipoprotein lipase (Bos taurus, UniProt P11151)", "T3 construct": "host or cells: bovine milk", "T3 sequence (P11151 29-478)": "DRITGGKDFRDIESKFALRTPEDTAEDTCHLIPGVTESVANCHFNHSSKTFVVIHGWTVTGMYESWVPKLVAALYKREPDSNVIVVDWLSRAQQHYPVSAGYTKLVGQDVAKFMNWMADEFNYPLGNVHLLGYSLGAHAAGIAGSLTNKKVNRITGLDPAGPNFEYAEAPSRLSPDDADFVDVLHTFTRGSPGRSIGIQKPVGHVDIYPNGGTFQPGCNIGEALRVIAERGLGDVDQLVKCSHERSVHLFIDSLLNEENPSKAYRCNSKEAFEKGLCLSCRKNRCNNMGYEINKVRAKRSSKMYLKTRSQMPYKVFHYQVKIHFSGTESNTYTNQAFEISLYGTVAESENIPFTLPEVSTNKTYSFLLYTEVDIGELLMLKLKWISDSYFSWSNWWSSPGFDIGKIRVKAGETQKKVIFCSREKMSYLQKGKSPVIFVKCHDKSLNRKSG", "details": "cited from earlier work"}, "[4]": {"molecular_target": "T4, LAL (Cricetulus griseus, UniProt G3HQY6)", "T4 sequence (G3HQY6 19-397)": "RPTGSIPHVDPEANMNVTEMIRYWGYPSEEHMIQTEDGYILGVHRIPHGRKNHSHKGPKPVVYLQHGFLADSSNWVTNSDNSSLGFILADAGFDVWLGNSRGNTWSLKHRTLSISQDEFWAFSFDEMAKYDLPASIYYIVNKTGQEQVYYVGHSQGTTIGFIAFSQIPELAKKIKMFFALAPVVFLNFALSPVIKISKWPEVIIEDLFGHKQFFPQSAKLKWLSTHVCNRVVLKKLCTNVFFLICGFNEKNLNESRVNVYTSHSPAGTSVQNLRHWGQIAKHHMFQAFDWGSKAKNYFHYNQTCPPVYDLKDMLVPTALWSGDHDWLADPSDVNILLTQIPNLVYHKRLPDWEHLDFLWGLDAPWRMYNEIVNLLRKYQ", "test": "PS-20 remaining with LAL, with and without Lalistat-2", "assay_type": "biochemical", "set-up": "made in house; host or cells: CHO cells", "details": "0.05% PS-20 and 5 μg/mL LAL; t=0, 8 days and 15 days", "method": "The incubated samples were analyzed at t=0, 8 days and 15 days."}, "[5]": {"molecular_target": "T4, LAL", "test": "PS-20 remaining in mAb formulation with and without Lalistat-2", "assay_type": "biochemical", "set-up": "endogenous in cells; host or cells: mAb production cells (CHO inferred)", "details": "mAb-15 comprising 0.05% PS-20, 37° C., 15 days, 0.1 M Lalistat-2", "method": "mAb-15 comprising 0.05% PS-20 was incubated at 37° C. for 15 days in presence and absence of 0.1 M Lalistat-2. The incubated samples were analyzed at t=0, 8 days and […]."}, "[6]": {"test": "PS20 degradation by human PLBD2 and CHO PLBD2", "assay_type": "biochemical", "details": "PLBD2 200 μg/mL, 0.1% PS20, 45° C., 5 days", "method": "(§1) Hydrolysis of Polysorbate 20 and PS80 with Putative Phospholipase B-like 2 (PLBD2) and Formulated Antibody. To evaluate the effect of PLBD2 on PS20 and PS80 degradation, 16 μL of 10 mM Histidine buffer pH 6.0 was mixed with 2 μL of 1% PS20 or 1% PS80, followed by adding 2 μL of […] PLBD2 and incubating the sample at 45° C. for 5 days. One aliquot (3 μL) of each sample was diluted twenty-five time by adding 72 μL 10 mM histidine, pH 6.0 and used for LC-CAD analysis.\n(§2) Polysorbates degradation by recombinant human PLBD2 and in-house CHO PLBD2 was monitored as outlined in the Material and Methods section. Recombinant human PLBD2 and in-house CHO PLBD2 with concentration at 200 μg/mL were incubated with 0.1% of PS20 and PS80 for 5 days. […] By incubating PS20 with OriGene human PLBD2, a decrease in signal intensity occurred on POE-ester peaks eluting at between 27.5 and 38 minutes. The peaks eluted before 34 minutes were POE monoester containing short fatty acid chain, for example, POE sorbitan monolaurate, POE isosorbide monolaurate, POE sorbitan monomyristate and POE isosorbide monomyristate. […] Instead, because both PLBD2 proteins contain a high level of impurities, it is more likely that the difference in esterase activity originated from some unknown HCP impurities other than from PLBD2 itself."}, "[7]": {"test": "PS80 degradation by human PLBD2 and CHO PLBD2", "assay_type": "biochemical", "details": "PLBD2 200 μg/mL, 0.1% PS80, 45° C., 5 days; peaks eluting between 30 and 35 minutes", "method": "as §1, §2"}},
  "data": [
    {"molecule": "O=C(Oc1nsnc1N1CCCCC1)N1CCCCC1", "note": "[Lalistat 2]", "values": [
      {"measurement": "inhibition of LPL's activity (PS-20 remaining)", "setting": "[1]", "result": "cannot inhibit LPL's activity"},
      {"measurement": "IC50", "setting": "[2]", "result": 152, "unit": "nM"},
      {"measurement": "inhibition of bovine milk lipoprotein lipase", "setting": "[3]", "result": "does not exhibit inhibition"},
      {"measurement": "degradation of PS-20 in sample incubated with Lalistat-2", "setting": "[4]", "result": "almost no degradation of PS-20"},
      {"measurement": "degradation of PS-20 in mAb formulation incubated with Lalistat-2", "setting": "[5]", "result": "almost no degradation of PS-20"}
    ]},
    {"molecule": "B1", "values": [
      {"measurement": "PS20 degradation", "setting": "[6]", "result": "Significant PS20 degradation"},
      {"measurement": "PS80 degradation", "setting": "[7]", "result": "significant degradation"}
    ]}
  ]
}
